# Measurements taken from publication PMC10108347, “Heterobifunctional Ligase Recruiters Enable pan-Degradation of Inhibitor of Apoptosis Proteins” (Journal of Medicinal Chemistry, 2023).
# Where “and” joins values, the source holds several entries; their conditions need not be identical. Identical values can stand only once. Entries after “also recorded” stand apart in the source; their conditions may differ. Like-named read-outs stand apart in the source and are kept apart here.
# How the values were obtained:
# [1] = system: IKZF3; assay: Immunoblotting (western blot) quantification of IKZF3 levels in MM.1S cells; settings: for %remaining protein IKZF3: 16 h treatment at 0.1 μM, normalized to loading control and DMSO
# Method: (§1) To evaluate the capability of our panel of hetero-PROTACs for E3 ligase degradation, VHL19, VHL30, CRBN, cIAP1, cIAP2, and XIAP levels were quantified by western blot analyses. […] SDS-PAGE was performed, and proteins were then transferred onto PVDF membranes. Blotted membranes were blocked with 5% milk in Tris-buffered saline/Tween20 (TBST). Primary antibodies were diluted in 5% BSA in TBST, and incubations were performed overnight at 4 °C. Secondary HRP-conjugated antibodies diluted in 5% milk were incubated for 1 h at room temperature. Detection of proteins on PVDF was carried out using the WesternBright ECL HRP substrate or the WesternBright Sirius HRP substrate (Advansta, San Jose, USA) and imaged with LAS 4000× (Fujifilm). Membranes were subjected to 10 min incubation with Restore Western Blot Stripping Buffer (Thermo Fisher Scientific, Waltham, USA), followed by TBST washes. After brief re-activation with methanol, the membranes were blocked, and further probing of proteins was carried out.
# (§2) Quantification of blots was performed using ImageJ software (National Institutes of Health).
# [2] = target: XIAP (Homo sapiens, UniProt P98170); assay: Immunoblotting (western blot) quantification of XIAP levels in MM.1S cells; set-up: Dmax: dose or concentration left out as unconfirmed
# Chain of XIAP (P98170 whole entry): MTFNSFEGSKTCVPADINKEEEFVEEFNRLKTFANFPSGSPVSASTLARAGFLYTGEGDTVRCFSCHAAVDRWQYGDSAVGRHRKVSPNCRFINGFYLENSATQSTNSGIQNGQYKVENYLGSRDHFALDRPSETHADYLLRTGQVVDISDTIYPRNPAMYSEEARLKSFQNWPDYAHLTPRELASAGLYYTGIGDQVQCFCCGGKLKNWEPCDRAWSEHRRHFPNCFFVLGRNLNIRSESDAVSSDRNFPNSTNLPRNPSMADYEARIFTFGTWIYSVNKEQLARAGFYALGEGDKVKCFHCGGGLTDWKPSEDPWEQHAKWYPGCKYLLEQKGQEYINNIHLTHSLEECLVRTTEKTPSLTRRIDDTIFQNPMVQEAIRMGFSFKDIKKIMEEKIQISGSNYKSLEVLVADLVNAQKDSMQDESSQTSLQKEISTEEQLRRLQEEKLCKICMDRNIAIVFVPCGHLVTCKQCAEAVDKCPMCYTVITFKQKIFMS
# [3] = system: RPMI-8826; assay: CellTiter-Glo cell viability assay, RPMI-8826; format: cell-based
# Method: As TNF-α and related signaling cascades represent crucial factors for the single-agent activity of IAP-targeting compounds,[29],[38],[39],[55] the viability inhibition of sensitive cell lines was evaluated in the presence and absence of this inflammatory stimulus. […] These effects were independent of IAP baseline levels (Figure S16), which is in agreement with the previous studies of IAP antagonists.
# Cells were seeded in 384-well plates with respective treatments, and plates were incubated at 37 °C for 96 h. Viability assays were performed with or without the addition of TNF-α at 1 ng/mL. The cell viability readout was measured using the CellTiter-Glo Luminescent Cell Viability Assay (Promega, Madison, USA) and measured with a Synergy LX Multi-Mode plate reader (BioTek, Vermont, USA). All conditions were normalized to the DMSO-treated control. Data represents the mean ± SD of biological triplicates.
# [4] = system: MM.1S cells proteome; assay: diaPASEF quantitative proteomics in MM.1S cells: proteome-wide degradation selectivity (other proteins); format: cell-based, human; settings: for Precursor intensity (DIA-NN), CLPX precursor AAAAADLANR2: CLPX_HUMAN (O76031), ATP-dependent Clp protease ATP-binding subunit clpX-like, mitochondrial; for Precursor intensity (DIA-NN), SAMD1 precursor AAAAAATAPPSPGPAQPGPR2: SAMD1_HUMAN (Q6SPF0), Atherin; for Precursor intensity (DIA-NN), ZFP91 precursor AAAAAAAAAVSR2: ZFP91_HUMAN (Q96JP5), E3 ubiquitin-protein ligase ZFP91
# Method: To analyze the proteome-wide degradation selectivity of hetero-PROTACs 9, 25, and 27, a diaPASEF-based mass spectrometry approach was employed.[54] MM.1S cells were treated with 100 nM PROTACs for 3 h. […] Accordingly, global proteomic plots show the mathematically imputed levels of IAP proteins in treatment groups if the corresponding IAP was detected in the control treatment (see also Experimental Section).
# MM1s cells were treated with DMSO or 0.1 μM of compound for 3 h. The cells were harvested by centrifugation and washed with phosphate-buffered saline before snap-freezing in liquid nitrogen. The cells were lysed by addition of lysis buffer (8 M urea, 50 mM NaCl, 50 mM 4-(2-hydroxyethyl)-1-piperazine-ethanesulfonic acid (EPPS) pH 8.5, protease, and phosphatase inhibitors) and homogenization by bead beating (BioSpec) for three repeats of 30 s at 2400. Bradford assay was used to determine the final protein concentration in the clarified cell lysate. 50 μg of protein for each sample was reduced, alkylated, and precipitated using methanol/chloroform as previously described,[64] and the resulting washed precipitated protein was allowed to air dry. The precipitated protein was resuspended in 4 M urea, 50 mM HEPES pH 7.4, followed by dilution to 1 M urea with the addition of 200 mM EPPS, pH 8. […] The LysC digestion was diluted to 0.5 M urea with 200 mM EPPS pH 8, followed by digestion with trypsin (1:50; enzyme/protein) for 6 h at 37 °C. Sample digests were acidified with formic acid to a pH of 2–3 prior to desalting using C18 solid-phase extraction plates (SOLA, Thermo Fisher Scientific). Desalted peptides were dried in a vacuum centrifuge and reconstituted in 0.1% formic acid for LC–MS analysis.
# Data were collected using a TimsTOF Pro2 (Bruker Daltonics, Bremen, Germany) coupled to a nanoElute LC pump (Bruker Daltonics, Bremen, Germany) via a CaptiveSpray nanoelectrospray source. […] Peptides were separated using a 50 min gradient of 2–30% buffer B (acetonitrile in 0.1% formic acid) with a flow rate of 250 nL/min and column temperature maintained at 50 °C.
# Data-Dependent Acquisition (DDA) was performed in the Parallel Accumulation-Serial Fragmentation (PASEF) mode to determine effective ion mobility windows for downstream diaPASEF data collection.[54] The diaPASEF parameters included 100% duty cycle using accumulation and ramp times of 50 ms each, 1 TIMS-MS scan, and 10 PASEF ramps per acquisition cycle. The TIMS-MS survey scan was acquired between 100–1700 m/z and 1/K0 of 0.7–1.3 V × s/cm^2. Precursors with 1–5 charges were selected, and those that reached an intensity threshold of 20,000 arbitrary units were actively excluded for 0.4 min. The quadrupole isolation width was set to 2 m/z for m/z < 700 and 3 m/z for m/z > 800, with the m/z between 700 and 800 m/z being interpolated linearly. […] To perform diaPASEF, the precursor distribution in the DDA m/z-ion mobility plane was used to design an acquisition scheme for DIA data collection, which included two windows in each 50 ms diaPASEF scan. Data was acquired using 16 of these 25 Da precursor double window scans (creating 32 windows), which covered the diagonal scan line for doubly and triply charged precursors, with singly charged precursors able to be excluded by their position in the m/z-ion mobility plane. These precursor isolation windows were defined between 400–1200 m/z and 1/K0 of 0.7–1.3 V × s/cm^2.
# The diaPASEF raw file processing and controlling peptide and protein level false discovery rates, assembling proteins from peptides, and protein quantification from peptides were performed using library-free analysis in DIA-NN 1.8.[65] The library-free mode performs an in silico digestion of a given protein sequence database alongside deep learning-based predictions to extract the DIA precursor data into a collection of MS^2 spectra.
# [5] = target: CRBN (Homo sapiens, UniProt Q96SW2); assay: Immunoblotting (western blot) quantification of CRBN levels in MM.1S cells; settings: MM1.S, 16 h, read-out: %remaining protein CRBN
# Chain of CRBN (Q96SW2 whole entry): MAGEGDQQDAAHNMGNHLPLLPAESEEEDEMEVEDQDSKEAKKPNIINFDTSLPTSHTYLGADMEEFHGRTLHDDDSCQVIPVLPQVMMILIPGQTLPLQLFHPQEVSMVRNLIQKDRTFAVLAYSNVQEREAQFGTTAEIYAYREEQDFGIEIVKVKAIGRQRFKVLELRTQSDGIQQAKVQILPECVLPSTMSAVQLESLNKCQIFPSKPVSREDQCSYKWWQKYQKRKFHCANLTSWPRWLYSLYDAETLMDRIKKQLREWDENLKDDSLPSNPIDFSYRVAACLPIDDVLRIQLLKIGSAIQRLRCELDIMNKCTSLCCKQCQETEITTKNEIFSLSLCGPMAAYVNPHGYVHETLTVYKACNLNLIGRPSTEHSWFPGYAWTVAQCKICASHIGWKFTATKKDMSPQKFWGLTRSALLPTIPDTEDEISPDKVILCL
# Method: as §1, §2
# [6] = Log D7.4 measurement by chromatographic (fast-gradient HPLC) method; settings: pH 7.4
# Method: The system was calibrated by plotting the retention times of six different drugs (atenolol, metoprolol, labetalol, diltiazem, triphenylene, and permethrin) versus their literature-known log D7.4 in a calibration line (R^2 = 0.99). Subsequently, the mean retention times of the analytes were taken to calculate their log D7.4 values with the aid of the calibration line. At least two independent measurements of each analyte were performed.
# [7] = target: VHL19 (Homo sapiens, UniProt P40337); assay: Immunoblotting (western blot) quantification of VHL19 levels in MM.1S cells; settings: 16 h, 1 μM
# Chain of VHL19 (P40337 54-213): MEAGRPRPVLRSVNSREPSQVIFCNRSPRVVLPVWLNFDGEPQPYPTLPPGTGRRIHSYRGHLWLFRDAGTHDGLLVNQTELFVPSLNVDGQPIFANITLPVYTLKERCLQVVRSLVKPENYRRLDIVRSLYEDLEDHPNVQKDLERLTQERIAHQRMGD
# Method: as §1, §2
# [8] = precursor charge 2, per-replicate values (rep1, rep2), listed as SAB141
# [9] = MM.1S cells, 0.1 μM, 3 h, log2 fold change compound vs CTRLs (limma)
# [10] = RL4_HUMAN (P36578), 60S ribosomal protein L4, precursor charge 1, per-replicate values (rep1, rep2)
# [11] = MM1.S, 16 h, read-out: %remaining protein XIAP, MM.1S cells, 16 h treatment at 0.1 μM, normalized to loading control and DMSO
# [12] = precursor charge 2, per-replicate values (rep1, rep2), listed as Gue3582
# [13] = precursor charge 2, per-replicate values (rep1, rep2)
smiles,measurement,setting,value
"CN[C@@H](C)C(=O)N[C@H](C(=O)N1C[C@@H](Oc2cccc(OCCOCCCCCCOCCCCCCNc3cccc4c3C(=O)N(C3CCC(=O)NC3=O)C4=O)c2)C[C@H]1C(=O)N[C@@H]1CCCc2ccccc21)C1CCCCC1 (stereo partly drawn) [PROTAC 25, (2S,4S)-1-((S)-2-Cyclohexyl-2-((S)-2-(methylamino)propanamido)acetyl)-4-(3-(2-((6-((6-((2-(2,6-dioxopiperidin-3-yl)-1,3-dioxoisoindolin-4-yl)amino)hexyl)oxy)hexyl)oxy)ethoxy)phenoxy)-N-((R)-1,2,3,4-tetrahydronaphthalen-1-yl)pyrrolidine-2-carboxamide]",IKZF3 degradation (in words),"[1]; 16 h, 1 μM",substantial IKZF3 degradation at 1 μM
same,%remaining protein IKZF3,[1],95%
same,remaining activity at 0.1 µM,"[2]; MM1.S, 16 h, read-out: %remaining protein XIAP",2%
same,IC50,[3]; read-out: RPMI-8826,1520 nM
same,"Precursor intensity (DIA-NN), CLPX precursor AAAAADLANR2",[4]; [8],7987.33 and 21462.9
same,logFC COX5A,[4]; [9],-0.5474
same,logFC LMAN2,[4]; [9],-0.1147
same,logFC TOP1,[4]; [9],0.3058
same,"Precursor intensity (DIA-NN), RPL4 precursor […]1",[4]; [10],321.394
same,"Precursor intensity (DIA-NN), RPL4 precursor […]2","[4]; RL4_HUMAN (P36578), 60S ribosomal protein L4, precursor charge 2, per-replicate values (rep1, rep2), listed as SAB141",467864 and 464908
same,"Precursor intensity (DIA-NN), SAMD1 precursor AAAAAATAPPSPGPAQPGPR2",[4]; [8],14133.9 and 10400.6
same,"Precursor intensity (DIA-NN), ZFP91 precursor AAAAAAAAAVSR2",[4]; [8],72214.7 and 61349
same,remaining activity at 0.1 µM,[5],91%
same,chromatographic logD,[6],6
"CN[C@@H](C)C(=O)N[C@H](C(=O)N1C[C@@H](Oc2cccc(OCCCCC(=O)N[C@H](C(=O)N3C[C@H](O)C[C@H]3C(=O)N[C@@H](C)c3ccc(-c4scnc4C)cc3)C(C)(C)C)c2)C[C@H]1C(=O)N[C@@H]1CCCc2ccccc21)C1CCCCC1 [PROTAC 9, (2S,4S)-1-((S)-2-Cyclohexyl-2-((S)-2-(methylamino)propanamido)acetyl)-4-(3-((5-(((S)-1-((2S,4R)-4-hydroxy-2-(((S)-1-(4-(4-methylthiazol-5-yl)phenyl)ethyl)carbamoyl)pyrrolidin-1-yl)-3,3-dimethyl-1-oxobutan-2-yl)amino)-5-oxopentyl)oxy)phenoxy)-N-((R)-1,2,3,4-tetrahydronaphthalen-1-yl)pyrrolidine-2-carboxamide]",remaining activity at 0.1 µM,[2]; [11],7%
same,Dmax,"[2]; MM1.S, read-out: Dmax XIAP (maximum degradation), MM.1S cells, 16 h",99%
same,Dmax XIAP (maximum degradation),"[2]; MM.1S cells, 16 h, at 0.1 μM",>99%
same,DC50,"[2]; read-out: DC50,16h XIAP, MM.1S cells, 16 h, densitometric quantification of western blots, n = 4",0.7 nM
same,remaining VHL19,[7],24%
same,IC50,"[3]; MM cell line, 96 h, TNFα-challenged, read-out: IC50 cell viability RPMI-8826",2540 nM
same,"Precursor intensity (DIA-NN), CLPX precursor AAAAADLANR2",[4]; [12],27158.9 and 21797.6
same,logFC EIF1AX,[4]; [9],0.2289
same,logFC SIGMAR1,[4]; [9],0.1571
same,logFC TAF15,[4]; [9],0.09552
same,logFC TOP1,[4]; [9],0.1861
same,"Precursor intensity (DIA-NN), RPL4 precursor AAAAAAALQAK1","[4]; RL4_HUMAN (P36578), 60S ribosomal protein L4, precursor charge 1, per-replicate values (rep1, rep2), listed as Gue3582",83.0044 and 593.705
same,"Precursor intensity (DIA-NN), RPL4 precursor AAAAAAALQAK2","[4]; RL4_HUMAN (P36578), 60S ribosomal protein L4, precursor charge 2, per-replicate values (rep1, rep2), listed as Gue3582",450548 and 462008
same,"Precursor intensity (DIA-NN), SAMD1 precursor AAAAAATAPPSPGPAQPGPR2",[4]; [12],15172 and 13054.7
same,"Precursor intensity (DIA-NN), ZFP91 precursor AAAAAAAAAVSR2",[4]; [12],70631.3 and 75175.8
"CN[C@@H](C)C(=O)N[C@H](C(=O)N1C[C@@H](Oc2cccc(OCCCCCCOCCCCCCOCCCCCCNc3cccc4c3C(=O)N(C3CCC(=O)NC3=O)C4=O)c2)C[C@H]1C(=O)N[C@@H]1CCCc2ccccc21)C1CCCCC1 (stereo partly drawn) [PROTAC 27, (2S,4S)-1-((S)-2-Cyclohexyl-2-((S)-2-(methylamino)propanamido)acetyl)-4-(3-((6-((6-((6-((2-(2,6-dioxopiperidin-3-yl)-1,3-dioxoisoindolin-4-yl)amino)hexyl)oxy)hexyl)oxy)hexyl)oxy)phenoxy)-N-((R)-1,2,3,4-tetrahydronaphthalen-1-yl)pyrrolidine-2-carboxamide]",%remaining protein IKZF3,[1],95%
same,remaining activity at 0.1 µM,[2]; [11],8%
same,logFC COX6C,[4]; [9],-0.5143
same,logFC EIF4B,[4]; [9],-0.1592
same,logFC HNRNPA2B1,[4]; [9],-0.1781
same,logFC POTEJ,[4]; [9],-0.3899
same,logFC TPM3,[4]; [9],-0.214
same,remaining activity at 0.1 µM,[5],95%
same,chromatographic logD,[6],7.2
"CN[C@@H](C)C(=O)N[C@@H](C(=O)N1CCC[C@H]1C(=O)N[C@@H]1c2ccccc2C[C@@H]1OCC#CC#CCO[C@H]1Cc2ccccc2[C@H]1NC(=O)[C@@H]1CCCN1C(=O)[C@H](NC(=O)[C@H](C)NC)C1CCCCC1)C1CCCCC1 [AZD5582, reference compound]",XIAP degradation (in words),"[2]; MM.1S cells, 16 h, western blot, 0.1 or 1 μM",failed to degrade XIAP; also recorded: did not influence XIAP levels even at 1 μM
same,IC50,"[3]; SI csv, head prints only the cell line, no quantity or unit, values parallel Table 1/S8, read-out: RPMI-8826",470 nM
same,"Precursor intensity (DIA-NN), CLPX precursor AAAAADLANR2",[4]; [13],16915 and 25995.2
same,logFC ATP5MD,[4]; [9],-0.4905
same,logFC CD44,[4]; [9],-0.09493
same,logFC EDF1,[4]; [9],-0.1747
same,logFC GOT2,[4]; [9],-0.1164
same,logFC RRP15,[4]; [9],-0.3053
same,"Precursor intensity (DIA-NN), RPL4 precursor AAAAAAALQAK1",[4]; [10],331.845
same,"Precursor intensity (DIA-NN), RPL4 precursor AAAAAAALQAK2","[4]; RL4_HUMAN (P36578), 60S ribosomal protein L4, precursor charge 2, per-replicate values (rep1, rep2)",447305 and 464651
same,"Precursor intensity (DIA-NN), SAMD1 precursor AAAAAATAPPSPGPAQPGPR2",[4]; [13],15006.1 and 13237.9
same,"Precursor intensity (DIA-NN), ZFP91 precursor AAAAAAAAAVSR2",[4]; [13],67729.2 and 74323
same,chromatographic logD,[6],4.1
